Patent US20210047278A1, “E3 UBIQUITIN LIGASE AGONISTS, PHARMACEUTICAL COMPOSITIONS INCLUDING THE E3 UBIQUITIN LIGASE AGONISTS, RELATED METHODS OF USE” (FRED HUTCHINSON CANCER RESEARCH CENTER, priority 2018, published 2021)
Like-named read-outs stand apart in the source and are kept apart here.

Experiments:
Type in all cases: binding
FBW7^ARG+pCycE = biological target: T1, FBW7^ARG+pCycE (Homo sapiens, UniProt Q969H0, R505L); test: FBW7^ARG-cyclin E agonist ALPHAscreen (primary PRUN, confirmation CRUN1, dose-response DRUN); conditions: for EC50 / Emax: DRUN dose-response; for Emax: relative to WT-FBW7+pCycE, read-out: FBW7 ACT Averaged Max % Response
T1 construct: GST (TEV site and flexible linker) (N, cleaved yes); made in house; host or cells: SF9 insect cells (baculovirus)
From the text: FBW7^ARG refers to a class of loss-of-function mutations of the of FBW7 ubiquitin ligase that target a key phosphate-binding arginine residue in the FBW7 substrate-binding domain. These mutations are commonly found in human cancers and promote tumorigenesis by impairing the interactions between FBW7 and its substrates, such as cyclin E and Myc. Described herein is a high throughput screen (HTS) to identify agonists, such as small molecules, that augment FBW7^ARG-substrate binding. In an embodiment, the HTS is based on the Amplified Luminescent Proximity Homogenous Assay (ALPHAscreen) because it detects protein-protein interactions with a large dynamic range. ALPHAscreen is a bead-based proximity assay wherein donor beads contain a photosensitizer, phthalocyanine, and acceptor beads contain thioxene, anthracene and rubrenein in sufficient quantities to generate a chemiluminescence/fluorescence reaction (FIG. 4A). Upon excitation with excitation illumination, such as light having a wavelength of 680 nm, of the donor beads, phthalocyanine converts ambient oxygen to singlet oxygen, which can diffuse approximately 200 nm within its 4-microsecond half-life. If an acceptor bead is in close proximity to an excited donor bead, singlet oxygen transfers its energy to the acceptor, resulting in emitted light at a broad bandwidth of −520-620 nm. The HTS-compatible FBW7/cyclin E ALPHAscreen assay described herein uses streptavidin coupled donor beads and Ni-chelate acceptor beads. In this assay, biotinylated cyclin E phosphopeptide and the His-tagged FBW7 mutant protein have high affinity for the donor and acceptor beads, respectively (FIG. 4B). A small molecule that is able to bridge the binding sites of the peptide and the mutant protein (or induce a conformational change that increases affinity of the protein for the peptide) will bring the donor and acceptor beads in close proximity to each other, resulting in an ALPHA signal. As designed, this assay format is a very sensitive, non-radioactive, homogenous “mix-and-read” format that is HT compatible in 384 and 1536 well formats.
In the 384-well screening assay, 10 uL of acceptor beads with 25 nM of the FBW7^ARG (RLFBW7) are dispensed to test wells; acceptor beads with 25 nM of the wt-FBW7 protein (WTFBW7) are dispensed to control wells. Test compounds are then added by pintool transfer and the mixture is incubated for 30 minutes. An additional 10 uL of donor beads with 25 nM cyclin E phosphopeptide is then added to all wells and the plate is incubated for 4 hours before the ALPHA signal is measured.
In preparation for large-scale screening, the assay was miniaturized to a 1536-well format. The miniaturized screen performed outstandingly in all respects. The screen was enhanced with respect to several parameters and assayed its performance using mutant FBW7 and wt-FBW7, as well as non-specific assay agonists. […] For example, the following Z′-scores/FBW7 concentrations were obtained: 6.25 nM/Z′=0.62, 12.5 nm/Z′=0.85, 25.0 nM/Z′=0.84.
1. Add 2.5 uL of RLFBW7/cycE˜P/Ni beads: Final [25 nM/25 nM/10 ug/ml].
2. Add 2.5 uL of WTFBW7/cycE˜P/Ni beads: Final [25 nM/25 nM/10 ug/ml].
4. Add 2.5 uL of SA beads to all wells Final [10 ug/ml],
5. Add 30 nL of compounds,
6. Read ALPHAscreen on Envision
The large-scale FBW7 agonist ALPHAscreen was completed using FBW7^ARG and a phosphorylated cyclin E (pCycE) degron peptide. Wt-FBW7+pCycE-peptide was the “high control”, and Wt-FBW7+unphosph. CycE peptide was the “low control”. The screen was performed on the 645,000-compound Scripps Diversity Library using 1536-well format and drug concentrations of 26.1 μM. An algorithm aided hit identification based on the average percent activation for all compounds and their standard deviation.
A confirmation assay of all 853 compounds in triplicate using a single concentration (26.1 μM). […]

FBW7^ARG (RLFBW7) alone = biological target: T2, FBW7^ARG (RLFBW7) alone (Homo sapiens, UniProt Q969H0, R505L); test: Counterscreen 1 ALPHAscreen with FBW7^ARG alone (CSRUN1/DCSRUN1); conditions: dose-response counterscreen; for Emax: read-out: RLFBW7 ACT DCSRUN1 Averaged Max % Response
T2 construct: GST (TEV site and flexible linker) (N, cleaved yes); made in house; host or cells: SF9 insect cells (baculovirus)
Protocol: (§1) Studies in 384-well format were performed using the ENVISION system. Reagent concentrations (see FIG. 6A), order of addition, pH (see FIG. 6B), and reducing agent were altered with the goal of enhancing the dynamic range between wt-FBW7 (the positive control) and FBW7^ARG (FIG. 6 and not shown). Wt-FBW7 produced a signal 100× greater with phosphorylated cyclin E degron peptide compared with unphosphorylated, which represents the assay's maximum range (FIG. 6C). […] This assay thus detects the residual affinity of the FBW7^ARG-substrate interaction, which, as predicted, is stronger than wt-FBW7 protein with unphosphorylated cyclin E peptide. Concurrent with this primary assay, counter ALPHAscreens were developed which omitted either FBW7 or peptide (to eliminate hits that are general ALPHAscreen agonists), or used an irrelevant phosphopeptide (to eliminate compounds that simply augment binding to phosphopeptides). […]
(§2) The 77 hits were subjected to a dose-response assay in which each compound was tested in triplicate in a 10 point 3-fold dilutional series, to a maximum concentration of approximately 87 μM. Three screens were performed, using FBW7^ARG+pCycE (DRUN), FBW7^ARG (DCSRUN1), or pCycE alone (DCSRUN2). See TABLES 2, 3, and 4, respectively, and FIG. 10A. All of the assays performed extremely well, and threshold of 10% activation (relative to WT-FBW7+pCycE) was set as positive. […] Many hits fell into shared structure cluster ID groups, reinforcing the idea that they function as specific agonists (see below and TABLE 5).

pCycE alone = test: Counterscreen 2 ALPHAscreen with cyclin E phosphopeptide alone (CSRUN2/DCSRUN2); conditions: for CyCEP ACT DCSRUN2 Averaged Max % Response: activation relative to WT-FBW7+pCycE, averaged maximum; for EC50: dose-response, triplicate, 10 point 3-fold dilutional series, read-out: CyCEP ACT DCSRUN2 Final EC50
Protocol: as §1, §2

[1] = raw curve fit, read-out: FBW7 ACT EC50 Curve Fit Raw, Molar
[2] = triplicate, 10 point 3-fold dilution, max approx. 87 μM, read-out: FBW7 ACT Final EC50, Molar
[3] = confirmation assay, triplicate, single concentration 26.1 μM, read-out: FBW7 ACT CRUN1 Avg % Response and Stdev
[4] = primary screen, 1536-well, 26.1 μM, FBW7^ARG + pCycE degron peptide, high control wt-FBW7+pCycE, read-out: FBW7 ACT PRUN % Response
[5] = raw curve fit, read-out: RLFBW7 ACT DCSRUN1 EC50 Curve Fit Raw
[6] = read-out: RLFBW7 ACT DCSRUN1 Final EC50

T1 sequence (Q969H0 64-707 R505L): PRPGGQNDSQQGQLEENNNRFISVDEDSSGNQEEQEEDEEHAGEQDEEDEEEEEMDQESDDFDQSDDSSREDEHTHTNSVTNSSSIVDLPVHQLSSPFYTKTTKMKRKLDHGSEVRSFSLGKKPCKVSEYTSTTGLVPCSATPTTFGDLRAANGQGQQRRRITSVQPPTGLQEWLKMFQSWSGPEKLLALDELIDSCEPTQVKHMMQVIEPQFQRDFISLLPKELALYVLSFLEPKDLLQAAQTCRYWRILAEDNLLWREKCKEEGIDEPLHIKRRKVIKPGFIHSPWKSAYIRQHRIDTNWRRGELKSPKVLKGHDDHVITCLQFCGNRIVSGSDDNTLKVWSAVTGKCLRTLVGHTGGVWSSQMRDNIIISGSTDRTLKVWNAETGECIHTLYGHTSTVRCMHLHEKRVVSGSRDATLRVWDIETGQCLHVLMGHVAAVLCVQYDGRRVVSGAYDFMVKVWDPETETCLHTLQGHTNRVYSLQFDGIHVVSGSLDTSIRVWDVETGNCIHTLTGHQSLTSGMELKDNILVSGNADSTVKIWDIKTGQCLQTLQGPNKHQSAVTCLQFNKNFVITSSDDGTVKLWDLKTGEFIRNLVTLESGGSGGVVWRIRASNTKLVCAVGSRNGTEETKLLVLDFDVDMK
T1 sequence (P63208 2-163 partner): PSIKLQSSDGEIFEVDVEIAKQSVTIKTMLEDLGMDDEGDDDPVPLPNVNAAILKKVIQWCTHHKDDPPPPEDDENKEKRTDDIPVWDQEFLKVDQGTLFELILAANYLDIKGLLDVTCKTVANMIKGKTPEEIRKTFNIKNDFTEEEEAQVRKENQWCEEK
T2 sequence (Q969H0 64-707 R505L): as the sequence (Q969H0 64-707 R505L) above
T2 sequence (P63208 2-163 partner): as the sequence (P63208 2-163 partner) above

Compound | EC50 (FBW7^ARG+pCycE; [1]) | Emax (FBW7^ARG+pCycE) | EC50 (FBW7^ARG+pCycE; [2]) | activation at 26.1 µM (FBW7^ARG+pCycE; [3]) | activation at 26.1 µM (FBW7^ARG+pCycE; [4]) | EC50 (FBW7^ARG (RLFBW7) alone; [5]) | Emax (FBW7^ARG (RLFBW7) alone) | EC50 (FBW7^ARG (RLFBW7) alone; [6]) | CyCEP ACT DCSRUN2 Averaged Max % Response (pCycE alone) | EC50 (pCycE alone) | RLFBW7 ACT DCSRUN1 Hill Slope (FBW7^ARG (RLFBW7) alone)
CN(C)CC[S+]([O-])c1cc(-c2cn[nH]c2)ccc1NC(=O)[C@@H]1Cc2cc(F)ccc2CN1.O=C(O)C(F)(F)F (some centres unmarked) [SR-00000005398-1] | 9.2 µM | 12.9% | > 65.3 µM | 2.28 ± 0.37% | 1.91% | 0.0925 µM | 0.77% | > 65.3 µM | 0.21% | > 65.3 µM | –
O=C(Cc1ccc(Br)cc1)N1CCC(c2nc(O)c3cnccc3n2)C1.O=C(O)C(F)(F)F (centres unmarked) [SR-00000005455-1] | 30.2 µM | 24.7% | > 65.3 µM | 4.65 ± 0.38% | 2.32% | 0.0129 µM | 0.43% | > 65.3 µM | 0.31% | > 65.3 µM | –
CN(C)CCN(C)c1nc([C@H](N)Cc2cccc(F)c2)cc2ccc(-c3cn[nH]c3)cc12.O=C(O)C(F)(F)F [SR-00000006284-1] | 7.2 µM | 15.4% | > 16.3 µM | 7.7 ± 0.45% | 2.73% | 2.2 µM | 0.27% | > 16.3 µM | 0.41% | > 16.3 µM | –
Cc1ncn(-c2ccc(Nc3cc(-c4nocc4-c4ccccn4)ccn3)cc2)n1.O=C(O)C(F)(F)F [SR-00000006872-1] | 2.6 µM | 12.1% | > 65.3 µM | 4.15 ± 0.5% | 2.76% | 83.6 µM | 2.08% | > 65.3 µM | 0.34% | > 65.3 µM | –
Cc1ccc(-c2cccc3cnc(Nc4ccc(-n5cnc(-c6ccccn6)n5)cc4)nc23)cn1.O=C(O)C(F)(F)F [SR-00000008492-1] | 4 µM | 8.53% | > 65.3 µM | 4.91 ± 0.39% | 5.73% | 6.6 µM | 29.7% | > 65.3 µM | 0.22% | > 65.3 µM | –
CC(=O)NCC(c1cccs1)S(=O)(=O)c1ccc(C)cc1 (centres unmarked) [SR-01000023077-1] | 15.3 µM | 18.4% | > 64.6 µM | 2.46 ± 0.31% | 1.85% | 33.3 µM | 0.39% | > 64.6 µM | 0.18% | > 64.6 µM | –
CCS(=O)(=O)NCC(c1cccs1)S(=O)(=O)c1ccc(C)cc1 (centres unmarked) [SR-01000023127-1] | 7.6 µM | 14.7% | > 66.4 µM | 2.18 ± 0.61% | 3.19% | 0.0177 µM | 0.24% | > 66.4 µM | 0.21% | > 66.4 µM | –
CCN(CC)c1ccc2cc(-c3ccccn3)c(=O)oc2c1 [SR-01000033354-1] | 24.5 µM | 21.9% | > 70.9 µM | 3.34 ± 0.7% | 2.67% | 19.4 µM | 12% | > 70.9 µM | 0.43% | > 70.9 µM | –
C/C(=N\Nc1cccc(C(F)(F)F)c1)C1CC1 [SR-01000041073-1] | 15.5 µM | 26.6% | > 75.4 µM | 10.7 ± 0.12% | 3.41% | 42.4 µM | 101% | 39.8 µM | 0.22% | > 75.4 µM | 3.57
CC(C)(C)OC(=O)N/N=C\c1cccs1 [SR-01000110457-1] | 1.4 µM | 6.03% | > 65.3 µM | 2.27 ± 0.05% | 5.59% | 0.823 µM | 1.17% | > 65.3 µM | 0.10% | > 65.3 µM | –
CCOC(=O)c1sc2ncn(CC(=O)NCCC3=CCCCC3)c(=O)c2c1C [SR-01000119175-1] | – | 10.3% | – | 2.53 ± 0.13% | 2.18% | – | 0.7% | – | 0.13% | > 65.3 µM | –
